Molecules are shown by their SMILES.

This data set can be described thus: gradient 5% acetonitrile 3 min, to 50% in 2 min, to 85% in 15 min, held 3 min, 100 µL/min. The note with it: column: Zorbax Extend-C18 2.1 x 50 mm; eluents: water / acetonitrile, 0.1% formic acid. The method, boiled down:
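Over 3 months, pure standards in mixtures of ~100 molecules were run by HPLC coupled to a quadrupole time-of-flight mass spectrometer in positive and negative ionization mode. The column was a Zorbax Extend-C18 (2.1 × 50 mm, 1.8 μm) at 100 μL/min, eluted with water and acetonitrile each holding 0.1% formic acid, with 40 μL dead and 900 μL dwell volumes. Retention time was determined from adduct peaks chosen by software and checked manually.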
Consider `O=C(Nc1ccc(N2CCN(c3ccccc3)C2=O)nc1)c1ccncc1`, for which the RP-LC retention time was found to be 689 s.

In turn, `N#Cc1ccc(N2C=C(C(=O)N3CCCC3)S(=O)(=O)c3ccc(Cl)cc32)cc1` showed an RP-LC retention time of 799 s.

`COC(=O)C1CCN(S(=O)(=O)CCCOc2cccc3c2OC(C)(C)C3)CC1` registered an RP-LC retention time of 936 s.

In the case of `O=C(Cn1cnc(-c2noc(-c3ccccc3)n2)c1)NCc1ccccc1`, the RP-LC retention time came to 803 s.

Regarding `COc1ccc(Cn2nc3c(S(=O)(=O)N4CCCCC4)cccn3c2=O)cc1F`, the RP-LC retention time worked out at 888 s.

For the molecule `Cc1cnc(-c2cccnc2)n1CC1CNC1`, the RP-LC retention time came out at 508 s.

In turn, `Cn1c(=O)c2c3c(cnc2n(C)c1=O)C(=O)CC(c1ccc(F)cc1)C3` (stereo not given) registered an RP-LC retention time of 940 s.

For `CCNC(=O)CCc1nc2ccccc2n(CC(=O)Nc2ccc(OCC)cc2)c1=O`, the RP-LC retention time turned out to be 775 s.

`CN1C(=O)c2cccnc2Sc2cc(NC(=O)CCc3ccccc3)ccc21` gave an RP-LC retention time of 818 s.

Take `Clc1ccc(-c2nnc(-c3cccnc3N3CCN(c4ccccn4)CC3)o2)cc1`: the RP-LC retention time stood at 710 s.

In turn, `CCNc1nn2ccccc2c1/C=C(/C#N)C(=O)OCC` showed an RP-LC retention time of 936 s.

As for `O=C(CN1CCN(C(=O)N2CCCCC2)CC1)Nc1cc(Cl)ccc1Cl`, the RP-LC retention time was determined as 675 s.

In the case of `CC(C)CNC(=O)c1nn(C)c2c1COc1ccccc1-2`, the RP-LC retention time amounted to 690 s.

As for `COC(=O)C1CCN(C(=O)c2cccnc2-c2nc3ccccc3s2)CC1`, the RP-LC retention time was determined as 747 s.

`O=C(CSc1nccc(N2CCCC2)n1)N1CCN(c2ccccc2F)CC1` returned an RP-LC retention time of 677 s.

Take `CCCCCN1C(=O)C2(NCCc3c2[nH]c2ccc(C)cc32)c2ccccc21` (stereo not given): the RP-LC retention time is 792 s.

In the case of `CC(C)(C)c1ccc(C(=O)NC2(c3nc(-c4ccccc4)no3)CCCCC2)cc1`, the RP-LC retention time was 1410 s.

As to `COc1cccc(-c2noc(C3CCCN3C(=O)Nc3ccc(OC)c(Cl)c3)n2)c1` (stereo not given), the RP-LC retention time stood at 974 s.

The molecule `COc1ccc(NC(=O)N2CC=C(c3cn(C)c4ncccc34)CC2)cc1OC` showed an RP-LC retention time of 714 s.

`CCc1ccccc1NC(=O)Cn1c(N2CCCC2)nc(C)cc1=O` registered an RP-LC retention time of 659 s.

For the molecule `CN(CC1CCOC1)C(=O)Nc1cc(F)c(F)c(F)c1` (stereo not given), the RP-LC retention time was found to be 764 s.

As to `CCC(=O)Nc1cc2c(cc1S(=O)(=O)c1ccccc1)n(C)c(=O)n2C`, the RP-LC retention time stood at 710 s.

Regarding `CC(C)(C)C(=O)N1CCC(F)(c2nc(-c3ccncc3)no2)CC1`, the RP-LC retention time was determined as 802 s.

Regarding `CC(C)n1cnc(S(=O)(=O)N2CCC(C(=O)NCCc3ccccc3)CC2)c1`, the RP-LC retention time was determined as 745 s.

With `CCc1ccccc1S(=O)(=O)N1CCC(N2CCN(Cc3ccccc3)C(=O)C2=O)CC1`, the RP-LC retention time was determined as 864 s.

With `Cc1cccc(C)c1NC(=O)CSc1ccc(N2CCCC(C(=O)NC3CC3)C2)nn1` (stereo not given), the RP-LC retention time amounted to 628 s.

With `N#Cc1ccccc1NC(=O)C(=O)NCc1ccccn1`, the RP-LC retention time is 572 s.

In turn, `CCN(C(=O)c1cccs1)c1nc(-c2ccc(C)cc2)cs1` registered an RP-LC retention time of 1280 s.

As for `CC1(C)C(=O)N(CC(=O)Nc2cccc(Br)c2)c2ccccc21`, the RP-LC retention time was 968 s.

Molecule `COc1ccc(-c2noc(-c3ccc(N4CCN(Cc5ccc6c(c5)OCO6)CC4)nc3)n2)cc1` registered an RP-LC retention time of 785 s.

The molecule `CS(=O)(=O)N1CCC(C(=O)NCCc2ccccc2)Oc2ccc(Cl)cc21` (stereo not given) came in with an RP-LC retention time of 919 s.

Consider `O=C(c1ccc(F)c(F)c1)N1CCN(c2cc(-c3ccc(F)cc3)[nH]n2)CC1`, for which the RP-LC retention time stood at 837 s.

For the molecule `O=C(NCCc1cccs1)c1ccc2ccnc(N3CCN(c4ccc(Cl)cc4)CC3)c2c1`, the RP-LC retention time was 931 s.

`Cc1noc(C)c1CC(=O)NCC12CCC=C1N(C)C(=O)CC2` (stereo not given) gave an RP-LC retention time of 638 s.

With `CN(C)CCNC(=O)C(C)(C)Oc1ccc(Cl)cc1`, the RP-LC retention time was 629 s.

Take `COc1ccc2nc(-c3ccc(Cl)cc3)cc(C(=O)O)c2c1`: the RP-LC retention time came out at 1090 s.

With `COc1ccc2c(c1)c(CN1CCC(C(=O)NCCCN3CCc4ccccc4C3)CC1)cn2C`, the RP-LC retention time was determined as 565 s.

The molecule `COCC(=O)NC1CCC12CCN(C(=O)C(C)C)CC2` (stereo not given) registered an RP-LC retention time of 636 s.

As for `COc1cc(OC)cc(C2(C#N)CCN(C)CC2)c1`, the RP-LC retention time was 665 s.

Consider `CCCCn1c(=O)c2ccccc2n(Cc2nc(-c3ccc(F)cc3)no2)c1=O`, for which the RP-LC retention time is 1170 s.

The molecule `Cc1cccc2nnc(N3CCN(C(=O)c4ccc(Br)cc4)CC3)n12` registered an RP-LC retention time of 683 s.

For the molecule `O=C(CCc1c[nH]c2ccccc12)Nc1cccc(-c2nnc3n2CCCC3)c1`, the RP-LC retention time amounted to 682 s.

As to `Cc1cc(C)cc(Oc2nccn3c(=O)n(CC(=O)Nc4c(C)cccc4C)nc23)c1`, the RP-LC retention time is 906 s.

`O=C(CC1CCCC1)Nc1cnc(-c2cccnc2)nc1` came in with an RP-LC retention time of 689 s.

For the molecule `Cc1nn(CC(=O)NCc2ccco2)c(=O)c2nc(-c3ccccc3)sc12`, the RP-LC retention time amounted to 782 s.

In turn, `CCOC(=O)c1ccccc1NC(=O)CSc1ccc(-c2ccc3c(c2)OCO3)nn1` gave an RP-LC retention time of 974 s.

In the case of `Cc1cnn(CCC(=O)N2CC(n3cc(COc4ccc(F)cc4)nn3)C2)c1`, the RP-LC retention time turned out to be 712 s.

Molecule `O=C(Cn1cnc2nc(N3CCC(C(=O)NC4CC4)CC3)sc2c1=O)Nc1ccccc1Cl` gave an RP-LC retention time of 665 s.

For `Cc1nnc(C2CC3(CCN(CC(C)C)CC3)CN2CCc2ccccc2)o1` (stereo not given), the RP-LC retention time was determined as 612 s.

Regarding `Cc1ccc(NS(=O)(=O)c2cn(CC(C)C)c3ncccc23)cc1F`, the RP-LC retention time is 953 s.

The molecule `Fc1ccc(-c2csc(Cc3nc(-c4ccc(Cl)cc4)no3)n2)cc1` had an RP-LC retention time of 1310 s.

`CNC(=O)c1noc([C@@H]2CC(F)(F)CN2C(=O)C2CCC2)n1` returned an RP-LC retention time of 669 s.

As to `CCc1cccc(Nc2nc(C)cc(=O)n2CC(=O)Nc2ccc3c(c2)OCCO3)c1`, the RP-LC retention time turned out to be 1040 s.

Regarding `CSc1cccc(NC(=O)Cn2nc(-n3cccc3)c3c(C)cc(C)nc32)c1`, the RP-LC retention time was found to be 1080 s.

In the case of `COc1ccc(C2c3[nH]c4ccccc4c3CCN2C(=O)c2cccnc2)cc1` (stereo not given), the RP-LC retention time was determined as 887 s.

For `Cc1ccc(CNC(=O)C2CCN(c3cncnc3N3CCOCC3)CC2)cc1`, the RP-LC retention time was 631 s.

On to `Cc1oc(-c2[nH]ncc2C(=O)N(C)C)cc1S(=O)(=O)NCCC(C)C`, for which the RP-LC retention time turned out to be 692 s.

For `COc1ccc(CNC(=O)c2nc(N3CCSCC3)c3cnn(C)c3n2)cc1`, the RP-LC retention time was 775 s.

For `CC1CCN(S(=O)(=O)c2cccn(CC(=O)OC(C)(C)C)c2=O)CC1`, the RP-LC retention time was 965 s.

With `Cc1nn(C)c(C)c1S(=O)(=O)N1CCN(C(=O)CCc2c[nH]c3ccccc23)CC1`, the RP-LC retention time turned out to be 708 s.

In the case of `Cc1ccc(NC(=O)N2CCc3[nH]cnc3C2c2ccncc2)c(Cl)c1` (stereo not given), the RP-LC retention time came out at 753 s.

In the case of `Cc1[nH]c2ccccc2c1C(=O)C(c1ccccc1)N1CCN(c2ncccn2)CC1` (stereo not given), the RP-LC retention time stood at 682 s.

For `COc1ccc(OCC(=O)Nc2nc(-c3ccc(Cl)cc3)cs2)cc1`, the RP-LC retention time worked out at 1140 s.

Molecule `Cc1ccc(Nc2nc3ccncc3n(Cc3ccccc3)c2=O)cc1` returned an RP-LC retention time of 778 s.

Molecule `Cc1cc(=O)n(CC(=O)Nc2ccc(C)c(C)c2)c(N2CCOCC2)n1` gave an RP-LC retention time of 697 s.

`CN1CCCN(C(=O)c2cn(-c3ccc(-c4nc(C(C)(C)C)no4)cn3)cn2)CC1` returned an RP-LC retention time of 656 s.

Molecule `Cn1cc(CCNS(=O)(=O)c2cccc3nsnc23)c2cccnc21` had an RP-LC retention time of 671 s.

Molecule `COc1cccc(-c2cc3n(n2)CCCN(C(=O)NCc2ccco2)C3)c1` displayed an RP-LC retention time of 850 s.

As to `Cc1ccc(CNC(=O)NCCn2cnc3cc(C(=O)NC4CCCC4)ccc32)cc1`, the RP-LC retention time worked out at 652 s.

As to `O=C(NCc1ccc(F)cc1)C1CCCN(c2nccnc2Sc2ccccc2)C1` (stereo not given), the RP-LC retention time was 1020 s.

Regarding `CCCn1c(=O)sc2cc(S(=O)(=O)N3CCC(C(=O)NCc4ccccn4)CC3)ccc21`, the RP-LC retention time was 662 s.

In the case of `CCOc1ccc(-c2noc(Cn3nc(-c4ccccc4F)ccc3=O)n2)cc1OC`, the RP-LC retention time amounted to 964 s.

For `COc1ccc(OCc2nnc3sc(-c4ccncc4)nn23)cc1`, the RP-LC retention time stood at 710 s.

As to `CCn1ccc(C(=O)N2CCC(c3noc(-c4cnccn4)n3)C2)n1` (stereo not given), the RP-LC retention time was 634 s.

In turn, `CCOC(=O)C(=O)NCC1CN(c2ccccc2)C(=O)O1` (stereo not given) registered an RP-LC retention time of 647 s.

In turn, `O=C(NC1CC1)c1ccc(CN2CCN(Cc3ccc(F)cc3)C(=O)C2=O)cc1` registered an RP-LC retention time of 673 s.

For the molecule `CCOC(=O)c1cn(CC(=O)Nc2ccc3c(c2)OCO3)c2nc(C)ccc2c1=O`, the RP-LC retention time is 715 s.

Take `COc1ccc(-n2nc(C(=O)N3CCCCC3c3cccnc3)c(=O)n(C)c2=O)cc1` (stereo not given): the RP-LC retention time worked out at 638 s.

In the case of `O=C(c1cc2ccccc2[nH]1)N1CCN(c2cc(-c3ccc(Cl)cc3)[nH]n2)CC1`, the RP-LC retention time was found to be 923 s.

The molecule `Cn1ncc2c3ccccc3n(CCCC(=O)N3CCc4ccccc4C3)c2c1=O` returned an RP-LC retention time of 931 s.

The record behind these values is the METLIN SMRT retention time set (Domingo-Almenara et al. 2019).
